In patent EP4745137A1 (Gluetacs Therapeutics (Shanghai) Co., Ltd., priority 2023, dated 2025):
Like-named read-outs stand apart in the source and are kept apart here.

How the values were obtained:
Vcap = assay: Tumor cell proliferation inhibition (CellTiter-Meiluncell Luminescent Cell Viability Assay), Vcap; conditions: Homo sapiens, 96 h, read-out: inhibitory activity (IC50, nM) against tumor cells proliferation, Vcap
Description: (§1) The tumor cells used herein were cultured in a cell culture medium listed in table 2 at 37°C in an incubator with 5% CO2. Prior to experimentation, all cell lines used were correctly identified by STR profiling, and tested negative for mycoplasma contamination using a mycoplasma detection kit through routine screenings.
(§2) On the following day, the test compounds of the present disclosure were subjected to serial dilution. […] Subsequently, 0.5 µL of the test compound dilution was transferred into the 96-well plate containing the cells, with each well containing 100 µL of cell culture medium. […] Into the 96-well plate, the diluted test compounds and corresponding detection reagents were added, resulting in final test compound concentrations of 500 nM and 10 nM, respectively. The experimental procedure is described below using the diluted 2 µM test compound as an example.
(§3) After the cells were treated with the compounds of the present disclosure for a specified period (the treatment durations were shown in Table 3), the cell viability assay reagent was added to the culture medium according to the kit's instructions to determine cell viability. […] All controls were treated using the same procedure as the compounds of the present disclosure. The growth inhibition curves for the compounds of the present disclosure were plotted using Prism GraphPad software, and the IC50 values were calculated therefrom.

MM.1R = assay: Tumor cell proliferation inhibition (CellTiter-Meiluncell Luminescent Cell Viability Assay), MM.1R; conditions: Homo sapiens, 96 h, read-out: inhibitory activity (IC50, nM) against tumor cells proliferation, MM.1R
CK1α = biological target: T1, CK1α (Homo sapiens, UniProt P48729+Q96SW2); assay: Western-blot assay of substrate protein degradation in hPBMCs, CK1α; format: cell-based; conditions: 24 hours of compound treatment
T1 construct: endogenous in cells; host or cells: hPBMCs (Milecell Biotechnologies)

Jurkat = assay: Tumor cell proliferation inhibition (CellTiter-Meiluncell Luminescent Cell Viability Assay), Jurkat; conditions: Homo sapiens, 96 h, read-out: inhibitory activity (IC50, nM) against tumor cells proliferation, Jurkat
[1] = biological target: T2, human Cereblon WT GST-tagged protein (Homo sapiens, UniProt Q96SW2); assay: CRBN-binding affinity by HTRF (CEREBLON BINDING kit); conditions: HTRF inhibitory activity, CEREBLON BINDING kit; read-out: HTRF IC50
T2 construct: purchased CISBIO 64BDCRBNPEH

SR = assay: Tumor cell proliferation inhibition (CellTiter-Meiluncell Luminescent Cell Viability Assay), SR; conditions: Homo sapiens, 96 h, read-out: inhibitory activity (IC50, nM) against tumor cells proliferation, SR
Description: as §1
On the following day, the test compounds of the present disclosure were subjected to serial dilution. […] Subsequently, 0.5 µL of the test compound dilution was transferred into the 96-well plate containing the cells, with each well containing 100 µL of cell culture medium. […] Into the 96-well plate, the diluted test compounds and corresponding detection reagents were added, resulting in final test compound concentrations of 500 nM and 10 nM, respectively.
as §3

GSPT1 = biological target: T3, GSPT1 (Homo sapiens, UniProt P15170+Q96SW2); assay: Western-blot assay of substrate protein degradation in hPBMCs, GSPT1; format: cell-based; conditions: 24 hours of compound treatment
T3 construct: endogenous in cells; host or cells: hPBMCs (Milecell Biotechnologies)

WEE1 = biological target: T4, WEE1 (Homo sapiens, UniProt P30291+Q96SW2); assay: Western-blot assay of substrate protein degradation in hPBMCs, WEE1; format: cell-based; conditions: 24 hours of compound treatment
T4 construct: endogenous in cells; host or cells: hPBMCs (Milecell Biotechnologies)

CCRF-CEM = assay: Tumor cell proliferation inhibition (CellTiter-Meiluncell Luminescent Cell Viability Assay), CCRF-CEM; conditions: Homo sapiens, 96 h, read-out: inhibitory activity (IC50, nM) against tumor cells proliferation, CCRF-CEM
Description: as §1, §2, §3

IKZF1 = biological target: T5, IKZF1 (Homo sapiens, UniProt Q13422+Q96SW2); assay: Western-blot assay of substrate protein degradation in hPBMCs, IKZF1; format: cell-based; conditions: 24 hours of compound treatment
T5 construct: endogenous in cells; host or cells: hPBMCs (Milecell Biotechnologies)

[2] = test system: Human acute T lymphocytic leukemia cells (Molt-4); assay: Tumor cell proliferation inhibition (CellTiter-Meiluncell Luminescent Cell Viability Assay), Molt-4; conditions: MOLT-4, 96 h, read-out: inhibitory activity (IC50, nM) against tumor cells proliferation, Molt 4
CAL-62 = assay: Tumor cell proliferation inhibition (CellTiter-Meiluncell Luminescent Cell Viability Assay), CAL-62; conditions: Homo sapiens, CAL-62, 96 h, read-out: inhibitory activity (IC50, nM) against tumor cells proliferation, CAL-62
[3] = test system: Human breast cancer cells (MDA-MB-231); assay: Tumor cell proliferation inhibition (CellTiter-Meiluncell Luminescent Cell Viability Assay), MDA-MB-231; conditions: MDA-MB-231, 96 h, read-out: inhibitory activity (IC50, nM) against tumor cells proliferation, MDA-MB-231
NCI-H1975 = assay: Tumor cell proliferation inhibition (CellTiter-Meiluncell Luminescent Cell Viability Assay), NCI-H1975; conditions: Homo sapiens, NCI-H1975, 96 h, read-out: inhibitory activity (IC50, nM) against tumor cells proliferation, H1975
SW620 = assay: Tumor cell proliferation inhibition (CellTiter-Meiluncell Luminescent Cell Viability Assay), SW620; conditions: Homo sapiens, SW-620, 96 h, read-out: inhibitory activity (IC50, nM) against tumor cells proliferation, SW620
Description: as §1, §2, §3

MGC803 = assay: Tumor cell proliferation inhibition (CellTiter-Meiluncell Luminescent Cell Viability Assay), MGC803; conditions: Homo sapiens, MGC-803, 96 h, read-out: inhibitory activity (IC50, nM) against tumor cells proliferation, MGC803
IKZF2 = biological target: T6, IKZF2 (Homo sapiens, UniProt Q96SW2+Q9UKS7); assay: Western-blot assay of substrate protein degradation in hPBMCs, IKZF2; format: cell-based; conditions: 24 hours of compound treatment
T6 construct: endogenous in cells; host or cells: hPBMCs (Milecell Biotechnologies)

IKZF3 = biological target: T7, IKZF3 (Homo sapiens, UniProt Q96SW2+Q9UKT9); assay: Western-blot assay of substrate protein degradation in hPBMCs, IKZF3; format: cell-based; conditions: 24 hours of compound treatment
T7 construct: endogenous in cells; host or cells: hPBMCs (Milecell Biotechnologies)

MV-4-11 = assay: Tumor cell proliferation inhibition (CellTiter-Meiluncell Luminescent Cell Viability Assay), MV-4-11
[4] = compounds tested at 50 nM and 500 nM (concentration of the table not stated)
[5] = 50 nM and 500 nM tested (concentration behind the class not stated)
[6] = Homo sapiens, MV4-11, read-out: inhibitory activity (IC50, nM) against tumor cells proliferation, MV-4-11

T5 sequence (Q13422 whole entry): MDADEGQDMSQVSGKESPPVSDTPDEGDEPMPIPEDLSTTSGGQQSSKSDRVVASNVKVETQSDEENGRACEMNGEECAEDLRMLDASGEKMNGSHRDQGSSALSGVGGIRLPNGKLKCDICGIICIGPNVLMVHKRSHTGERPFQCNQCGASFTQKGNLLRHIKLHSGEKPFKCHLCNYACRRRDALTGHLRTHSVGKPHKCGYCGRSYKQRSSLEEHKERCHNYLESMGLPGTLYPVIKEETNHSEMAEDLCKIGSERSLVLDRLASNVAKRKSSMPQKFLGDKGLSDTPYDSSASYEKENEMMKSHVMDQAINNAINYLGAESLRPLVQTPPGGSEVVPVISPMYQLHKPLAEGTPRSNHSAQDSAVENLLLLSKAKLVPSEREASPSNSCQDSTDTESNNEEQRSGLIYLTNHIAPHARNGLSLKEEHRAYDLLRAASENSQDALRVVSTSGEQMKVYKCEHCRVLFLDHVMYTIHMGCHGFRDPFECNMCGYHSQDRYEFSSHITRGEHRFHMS
T5 sequence (Q96SW2 whole entry): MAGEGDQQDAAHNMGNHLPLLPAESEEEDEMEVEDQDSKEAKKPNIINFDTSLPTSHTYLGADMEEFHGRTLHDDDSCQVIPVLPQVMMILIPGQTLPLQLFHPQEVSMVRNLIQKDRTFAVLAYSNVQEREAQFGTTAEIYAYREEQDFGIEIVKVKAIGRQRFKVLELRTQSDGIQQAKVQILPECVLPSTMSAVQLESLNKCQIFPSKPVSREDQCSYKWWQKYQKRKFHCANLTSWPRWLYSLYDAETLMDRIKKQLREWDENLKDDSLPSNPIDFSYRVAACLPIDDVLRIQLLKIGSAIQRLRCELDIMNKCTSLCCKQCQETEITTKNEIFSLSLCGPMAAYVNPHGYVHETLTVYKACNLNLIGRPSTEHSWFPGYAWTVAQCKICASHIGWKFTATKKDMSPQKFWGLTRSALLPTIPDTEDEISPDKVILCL
T5 sequence (Q16531 whole entry partner): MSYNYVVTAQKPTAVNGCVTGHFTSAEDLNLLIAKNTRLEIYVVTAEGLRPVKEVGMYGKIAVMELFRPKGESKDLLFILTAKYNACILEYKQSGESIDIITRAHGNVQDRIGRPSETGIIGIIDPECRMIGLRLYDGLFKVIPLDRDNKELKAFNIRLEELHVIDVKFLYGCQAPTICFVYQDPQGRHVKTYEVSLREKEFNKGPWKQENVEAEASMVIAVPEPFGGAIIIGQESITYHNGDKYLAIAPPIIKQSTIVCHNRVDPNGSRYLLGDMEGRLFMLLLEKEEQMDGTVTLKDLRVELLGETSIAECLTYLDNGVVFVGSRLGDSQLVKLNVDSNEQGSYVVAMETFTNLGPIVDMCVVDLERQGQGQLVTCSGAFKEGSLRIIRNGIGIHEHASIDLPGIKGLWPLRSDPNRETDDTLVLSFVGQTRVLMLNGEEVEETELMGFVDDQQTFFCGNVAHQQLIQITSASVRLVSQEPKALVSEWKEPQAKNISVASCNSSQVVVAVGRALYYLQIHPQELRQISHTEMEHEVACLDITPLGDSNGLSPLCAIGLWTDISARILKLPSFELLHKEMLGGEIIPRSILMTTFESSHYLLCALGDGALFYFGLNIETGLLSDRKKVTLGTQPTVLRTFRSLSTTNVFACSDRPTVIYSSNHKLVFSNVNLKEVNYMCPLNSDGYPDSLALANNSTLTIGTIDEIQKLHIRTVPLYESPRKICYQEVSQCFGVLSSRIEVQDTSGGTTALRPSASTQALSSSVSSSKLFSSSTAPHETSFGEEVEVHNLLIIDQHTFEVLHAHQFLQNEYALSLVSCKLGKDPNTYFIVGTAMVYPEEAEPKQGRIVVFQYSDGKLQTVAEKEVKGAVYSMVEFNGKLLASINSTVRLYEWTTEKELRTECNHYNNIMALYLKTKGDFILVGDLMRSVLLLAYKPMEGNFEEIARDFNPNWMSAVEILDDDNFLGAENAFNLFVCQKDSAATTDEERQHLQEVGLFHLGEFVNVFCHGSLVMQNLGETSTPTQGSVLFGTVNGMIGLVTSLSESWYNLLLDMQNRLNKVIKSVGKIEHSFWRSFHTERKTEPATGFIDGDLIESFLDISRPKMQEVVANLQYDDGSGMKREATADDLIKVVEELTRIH
T4 sequence (P30291 whole entry): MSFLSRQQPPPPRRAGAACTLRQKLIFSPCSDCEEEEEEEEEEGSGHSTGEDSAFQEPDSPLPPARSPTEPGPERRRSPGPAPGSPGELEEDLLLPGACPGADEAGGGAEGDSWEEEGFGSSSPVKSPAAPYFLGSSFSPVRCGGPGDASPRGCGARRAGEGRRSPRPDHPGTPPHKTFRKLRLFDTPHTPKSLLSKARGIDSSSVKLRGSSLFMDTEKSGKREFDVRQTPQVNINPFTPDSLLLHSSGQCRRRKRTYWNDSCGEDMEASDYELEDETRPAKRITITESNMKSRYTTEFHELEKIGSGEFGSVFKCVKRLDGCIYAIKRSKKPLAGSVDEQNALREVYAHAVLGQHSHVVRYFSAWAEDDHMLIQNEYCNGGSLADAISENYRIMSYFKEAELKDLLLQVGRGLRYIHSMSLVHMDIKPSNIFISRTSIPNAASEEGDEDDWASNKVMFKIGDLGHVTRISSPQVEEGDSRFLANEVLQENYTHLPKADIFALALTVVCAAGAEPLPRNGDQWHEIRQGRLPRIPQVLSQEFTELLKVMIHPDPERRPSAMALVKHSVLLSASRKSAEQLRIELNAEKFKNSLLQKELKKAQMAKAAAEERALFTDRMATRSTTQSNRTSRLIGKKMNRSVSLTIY
T4 sequence (Q96SW2 whole entry): as the sequence (Q96SW2 whole entry) above
T4 sequence (Q16531 whole entry partner): as the sequence (Q16531 whole entry partner) above
T2 sequence (Q96SW2 whole entry): as the sequence (Q96SW2 whole entry) above
T7 sequence (Q9UKT9 whole entry): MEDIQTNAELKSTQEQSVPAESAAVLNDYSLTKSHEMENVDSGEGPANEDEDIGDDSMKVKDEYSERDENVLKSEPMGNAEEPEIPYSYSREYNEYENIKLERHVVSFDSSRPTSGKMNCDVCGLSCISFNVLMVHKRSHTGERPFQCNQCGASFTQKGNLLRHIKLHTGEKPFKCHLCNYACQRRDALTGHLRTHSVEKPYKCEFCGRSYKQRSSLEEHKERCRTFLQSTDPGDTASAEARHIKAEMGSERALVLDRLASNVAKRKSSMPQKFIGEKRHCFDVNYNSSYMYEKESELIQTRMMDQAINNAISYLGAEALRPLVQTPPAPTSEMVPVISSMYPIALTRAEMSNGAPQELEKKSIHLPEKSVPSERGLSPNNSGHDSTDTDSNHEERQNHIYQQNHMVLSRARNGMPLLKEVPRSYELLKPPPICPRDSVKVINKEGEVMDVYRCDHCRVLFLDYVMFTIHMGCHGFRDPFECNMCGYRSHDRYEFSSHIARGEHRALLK
T7 sequence (Q96SW2 whole entry): as the sequence (Q96SW2 whole entry) above
T7 sequence (Q16531 whole entry partner): as the sequence (Q16531 whole entry partner) above
T1 sequence (P48729 whole entry): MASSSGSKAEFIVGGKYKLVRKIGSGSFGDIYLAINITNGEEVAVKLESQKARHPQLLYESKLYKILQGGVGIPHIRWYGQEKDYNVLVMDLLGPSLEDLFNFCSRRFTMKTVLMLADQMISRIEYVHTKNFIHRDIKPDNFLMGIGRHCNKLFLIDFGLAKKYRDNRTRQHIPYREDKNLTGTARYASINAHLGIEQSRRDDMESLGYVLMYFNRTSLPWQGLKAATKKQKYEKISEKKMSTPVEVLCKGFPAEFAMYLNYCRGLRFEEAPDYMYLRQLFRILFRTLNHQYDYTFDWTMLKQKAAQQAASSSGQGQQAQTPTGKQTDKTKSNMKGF
T1 sequence (Q96SW2 whole entry): as the sequence (Q96SW2 whole entry) above
T1 sequence (Q16531 whole entry partner): as the sequence (Q16531 whole entry partner) above
T3 sequence (P15170 whole entry): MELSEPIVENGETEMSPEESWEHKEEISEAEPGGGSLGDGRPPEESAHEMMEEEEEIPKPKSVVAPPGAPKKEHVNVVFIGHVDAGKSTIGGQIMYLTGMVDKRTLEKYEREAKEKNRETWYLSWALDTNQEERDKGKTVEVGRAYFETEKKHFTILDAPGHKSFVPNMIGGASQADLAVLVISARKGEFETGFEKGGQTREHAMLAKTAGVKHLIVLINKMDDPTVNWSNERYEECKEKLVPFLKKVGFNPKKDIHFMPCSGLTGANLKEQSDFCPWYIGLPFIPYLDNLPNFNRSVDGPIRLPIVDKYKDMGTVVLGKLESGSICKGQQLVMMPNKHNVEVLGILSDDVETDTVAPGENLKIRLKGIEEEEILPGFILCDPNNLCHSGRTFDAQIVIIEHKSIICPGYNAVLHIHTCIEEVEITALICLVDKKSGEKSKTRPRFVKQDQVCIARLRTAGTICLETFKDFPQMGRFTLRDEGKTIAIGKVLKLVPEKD
T3 sequence (Q96SW2 whole entry): as the sequence (Q96SW2 whole entry) above
T3 sequence (Q16531 whole entry partner): as the sequence (Q16531 whole entry partner) above

| IC50 (Vcap) | IC50 (MM.1R) | IC50 (Jurkat) | IC50 [1] | IC50 (SR) | IC50 (CCRF-CEM) | IC50 [2] | IC50 (CAL-62) | IC50 [3] | IC50 (NCI-H1975) | IC50 (SW620) | IC50 (MGC803) | Structure (SMILES) | CK1a substrate protein remaining % (CK1α; [4]) | GSPT1 substrate protein remaining % (GSPT1; [4]) | Weel substrate protein remaining % (WEE1; [4]) | IKZF 1 substrate protein remaining % (IKZF1; [4]) | IKZF2 substrate protein remaining % (IKZF2; [4]) | IKZF3 substrate protein remaining % (IKZF3; [4]) | further results |
| --- | --- | --- | --- | --- | --- | --- | --- | --- | --- | --- | --- | --- | --- | --- | --- | --- | --- | --- | --- |
| 10 to 50 nM | 10 to 50 nM | 5 to 10 nM | 500 to 1000 nM | 100 to 500 nM | 5 to 10 nM | 5 to 10 nM | 10 to 50 nM | 100 to 500 nM | 100 to 500 nM | 100 to 500 nM | 500 to 1000 nM | Cc1cc(Cl)cc(N2CCN(Cc3ccc4c(c3)CN(C3CCC(=O)NC3=O)C4=O)CC2)n1 (stereo not shown) [GT-04491, 3-(5-((4-(4-chloro-6-methylpyridin-2-yl)piperazin-1-yl)methyl)-1-oxoisoindolin-2-yl)piperidine-2,6-dione] | A (0% ≤ substrate protein remaining % ≤ 80%) | A (0% ≤ substrate protein remaining % ≤ 80%) | B (80%< substrate protein remaining %≤ 100%) | B (80%< substrate protein remaining %≤ 100%) | A (0% ≤ substrate protein remaining % ≤ 80%) | B (80%< substrate protein remaining %≤ 100%) | – |
| 10 to 50 nM | 10 to 50 nM | 5 to 10 nM | 500 to 1000 nM | 100 to 500 nM | 5 to 10 nM | 5 to 10 nM | 10 to 50 nM | 100 to 500 nM | 100 to 500 nM | 100 to 500 nM | 100 to 500 nM | O=C1CCC(N2Cc3cc(CN4CCN(c5cc(F)cc(F)c5)CC4)ccc3C2=O)C(=O)N1 (stereo not shown) [GT-04496, 3-(5-((4-(3,5-difluorophenyl)piperazin-1-yl)methyl)-1-oxoisoindolin-2-yl)piperidine-2,6-dione] | A (0% ≤ substrate protein remaining % ≤ 80%) | A (0% ≤ substrate protein remaining % ≤ 80%) | B (80%< substrate protein remaining %≤ 100%) | B (80%< substrate protein remaining %≤ 100%) | A (0% ≤ substrate protein remaining % ≤ 80%) | B (80%< substrate protein remaining %≤ 100%) | – |
| 5 to 10 nM | 1 to 5 nM | 1 to 5 nM | 500 to 1000 nM | 10 to 50 nM | 1 to 5 nM | 1 to 5 nM | 1 to 5 nM | 10 to 50 nM | 10 to 50 nM | 10 to 50 nM | 50 to 100 nM | O=C1CCC(N2Cc3cc(CN4CCN(c5cccc(Cl)n5)CC4)ccc3C2=O)C(=O)N1 (stereo not shown) [GT-04497, 3-(5-((4-(6-chloropyridin-2-yl)piperazin-1-yl)methyl)-1-oxoisoindolin-2-yl)piperidine-2,6-dione] | A (0% ≤ substrate protein remaining % ≤ 80%) | A (0% ≤ substrate protein remaining % ≤ 80%) | A (0% ≤ substrate protein remaining % ≤ 80%) | A (0% ≤ substrate protein remaining % ≤ 80%) | A (0% ≤ substrate protein remaining % ≤ 80%) | A (0% ≤ substrate protein remaining % ≤ 80%) | – |
| – | – | – | – | – | – | – | – | – | – | – | – | O=C1CCC(N2C(=O)c3ccc(CN4CCN(c5nccc(Cl)c5Br)CC4)cc3C2=O)C(=O)N1 (stereo not shown) [GT-06601, 5-((4-(3-bromo-4-chloropyridin-2-yl)piperazin-1-yl)methyl)-2-(2,6-dioxopiperidin-3-yl)isoindoline-1,3-dione] | – | – | – | – | – | – | CK1a substrate protein remaining % (CK1α; [5]): B (80%< substrate protein remaining %≤ 100%); GSPT1 substrate protein remaining % (GSPT1; [5]): A (0% ≤ substrate protein remaining % ≤ 80%); Weel substrate protein remaining % (WEE1; [5]): B (80%< substrate protein remaining %≤ 100%); IKZF 1 substrate protein remaining % (IKZF1; [5]): B (80%< substrate protein remaining %≤ 100%); IKZF2 substrate protein remaining % (IKZF2; [5]): B (80%< substrate protein remaining %≤ 100%); IKZF3 substrate protein remaining % (IKZF3; [5]): B (80%< substrate protein remaining %≤ 100%); IC50 (MV-4-11; [6]): 100 to 500 nM |
| – | – | – | – | – | – | – | – | – | – | – | – | O=C1CCC(N2C(=O)c3ccc(CN4CCN(c5ncnc(Cl)c5Cl)CC4)cc3C2=O)C(=O)N1 (stereo not shown) [GT-06623, 5-((4-(5,6-dichloropyrimidin-4-yl)piperazin-1-yl)methyl)-2-(2,6-dioxopiperidin-3-yl)isoindoline-1,3-dione] | – | – | – | – | – | – | IC50 (MV-4-11; [6]): 100 to 500 nM |
| – | – | – | – | – | – | – | – | – | – | – | – | O=C1CCC(N2C(=O)c3ccc(CN4CCN(c5ncncn5)CC4)cc3C2=O)C(=O)N1 (stereo not shown) [GT-06626, 5-((4-(1,3,5-triazin-2-yl)piperazin-1-yl)methyl)-2-(2,6-dioxopiperidin-3-yl)isoindoline-1,3-dione] | – | – | – | – | – | – | GSPT1 substrate protein remaining % (GSPT1; [5]): A (0% ≤ substrate protein remaining % ≤ 80%); IKZF 1 substrate protein remaining % (IKZF1; [5]): B (80%< substrate protein remaining %≤ 100%); IKZF2 substrate protein remaining % (IKZF2; [5]): B (80%< substrate protein remaining %≤ 100%); IKZF3 substrate protein remaining % (IKZF3; [5]): B (80%< substrate protein remaining %≤ 100%); IC50 (MV-4-11; read-out: inhibitory activity (IC50, nM) against tumor cells proliferation, MV-4-11): 50 to 100 nM |

| Structure (SMILES) | IC50 (Vcap) | IC50 (MM.1R) | IC50 (Jurkat) | IC50 [1] | IC50 (SR) | IC50 (CCRF-CEM) | IC50 [2] | IC50 (CAL-62) | IC50 [3] | IC50 (NCI-H1975) | IC50 (SW620) | IC50 (MGC803) | CK1a substrate protein remaining % (CK1α; [4]) | GSPT1 substrate protein remaining % (GSPT1; [4]) | Weel substrate protein remaining % (WEE1; [4]) | IKZF 1 substrate protein remaining % (IKZF1; [4]) | IKZF2 substrate protein remaining % (IKZF2; [4]) | IKZF3 substrate protein remaining % (IKZF3; [4]) | further results |
| --- | --- | --- | --- | --- | --- | --- | --- | --- | --- | --- | --- | --- | --- | --- | --- | --- | --- | --- | --- |
| O=C1CCC(N2Cc3cc(CN4CC=C(c5cccs5)CC4)ccc3C2=O)C(=O)N1 (stereo not shown) [GT-04494, 3-(1-oxo-5-((4-(thiophen-2-yl)-3,6-dihydropyridin-1(2H)-yl)methyl)isoindolin-2-yl)piperidine-2,6-dione] | 1 to 5 nM | < 1 nM | < 1 nM | < 500 nM | 5 to 10 nM | 1 to 5 nM | 1 to 5 nM | 1 to 5 nM | 10 to 50 nM | 10 to 50 nM | 5 to 10 nM | 10 to 50 nM | A (0% ≤ substrate protein remaining % ≤ 80%) | A (0% ≤ substrate protein remaining % ≤ 80%) | A (0% ≤ substrate protein remaining % ≤ 80%) | B (80%< substrate protein remaining %≤ 100%) | A (0% ≤ substrate protein remaining % ≤ 80%) | B (80%< substrate protein remaining %≤ 100%) | – |
| Cc1cscc1C1=CCN(Cc2ccc3c(c2)CN(C2CCC(=O)NC2=O)C3=O)CC1 (stereo not shown) [GT-04503, 3-(5-((4-(4-methylthiophen-3-yl)-3,6-dihydropyridin-1(2H)-yl)methyl)-1-oxoisoindolin-2-yl)piperidine-2,6-dione] | 1 to 5 nM | 1 to 5 nM | < 1 nM | < 500 nM | 1 to 5 nM | < 1 nM | < 1 nM | < 1 nM | 1 to 5 nM | 1 to 5 nM | 1 to 5 nM | 5 to 10 nM | A (0% ≤ substrate protein remaining % ≤ 80%) | A (0% ≤ substrate protein remaining % ≤ 80%) | A (0% ≤ substrate protein remaining % ≤ 80%) | A (0% ≤ substrate protein remaining % ≤ 80%) | A (0% ≤ substrate protein remaining % ≤ 80%) | A (0% ≤ substrate protein remaining % ≤ 80%) | – |
